{"source": "patent US20230112484A1", "about": "“COMPOSITIONS FOR CROP PROTECTION” (Agrematch Ltd., priority 2020, published 2023)", "type_in_all_cases": "in vivo", "key": {"Amaranthus palmeri [1]": {"system": "Amaranthus palmeri", "test": "Pre-emergence application (Example 5)", "conditions": "score 0 = complete germination inhibition, 100 = no effect", "method": "For pre-emergence application, compounds were dissolved in DMSO and then in distilled water to get 0.1-2 mg/ml solution with 2% DMSO. 2% DMSO solution in water was used as a negative control. As a positive control, 0.2 mg/ml oxyfluorfen ([…]) solution was used. For pre-emergence application, flowerpots were filled with 30 g of soil, and 4-5 Amaranthus palmeri seeds were sowed in each flowerpot. Each treatment contained 3 flowerpots. Each flowerpot was sprayed with 1.5 ml of the dissolved compound. Soil was let dry for about 1 hour at room conditions, and then each flowerpot was sub-irrigated with 40 ml water and incubated under conditions provided below. Amaranthus palmeri was incubated at 25° C. for 8 hr in dark, followed by 16 hr at 30° C. in light. Germination was assessed and scored after 4-7 days. Scoring scale: 0-complete germination inhibition, 100-no effect."}, "Amaranthus palmeri [2]": {"system": "Amaranthus palmeri", "test": "Post-emergence application (Example 5)", "conditions": "score 0 = complete phytotoxic effect, 100 = no effect", "method": "(§1) For post-emergence application, compounds were dissolved in DMSO and then in distilled water to get 0.05-2 mg/ml solution with 2% DMSO. Break-Thru surfactant was added to a final concentration of 0.05%. Negative control—an aqueous solution of 2% DMSO and 0.05% Break-Thru. Positive control—2 mg/ml Glyphosate (Roundup). For post-emergence application, 1.5 ml of each compound solution were sprayed on the foliage of Amaranthus palmeri, which were 10 days old at the day of the experiment. Each treatment contained 3 pots. Plants were let dry for about 15 minutes at room conditions, and then incubated at controlled growth chambers. Phytotoxicity was assessed and scored 4-10 days after applications. Scoring scale: 0—complete phytotoxic effect, 100—no effect."}, "Setaria viridis": {"system": "Setaria viridis", "test": "Herbicidal effect against Setaria viridis (Example 5)", "conditions": "for Herbicidal effect against Setaria viridis, result in words: in vivo"}, "Amaranthus palmeri [3]": {"system": "Amaranthus palmeri", "test": "Soil germination (Example 1)", "conditions": "for Amaranthus palmeri soil germination: score 0 = complete germination inhibition, 100 = no effect", "method": "(§2) Compounds were dissolved in DMSO and then in distilled water to get 0.01-2 mg/ml solution with 1% or 2% DMSO. 1% or 2% DMSO solution in water was used as a negative control. As a positive control, 0.1 or 0.2 mg/ml oxyfluorfen (Galigan) solution was used.\n(§3) Flowerpots were filled with 30 g of soil, and 4-5 seeds were sowed in each flowerpot. Each treatment contained 3 flowerpots. Each flowerpot was sprayed with 1.5 ml of the dissolved compound. Soil was let dry for about 1 hour at room conditions, and then each flowerpot was sub-irrigated with 40 ml water and incubated under conditions provided below.\n(§4) Amaranthus palmeri was incubated at 25° C. for 8 hr in dark, followed by 16 hr at 30° C. in light. Lolium rigidum was incubated at 21° C. for 8 hr in dark, followed by 16 hr at 21° C. in light. Germination was assessed and scored after 4-7 days. Scoring scale: 0—complete germination inhibition, 100—no effect."}, "Lolium rigidum [4]": {"system": "Lolium rigidum", "test": "Soil germination (Example 1)", "method": "as §2, §3, §4"}, "Abutilon theophrasti": {"system": "Abutilon theophrasti", "test": "Soil germination (Example 3)", "conditions": "0.1 mg/ml; score 0 = complete germination inhibition, 100 = no effect; after 7 days", "method": "(§5) Compounds were dissolved in DMSO and then in distilled water to get 0.1 or 0.5 mg/ml solution with 2% DMSO. 2% DMSO solution in water was used as a negative control. No positive control was used in this assay. Flowerpots were filled with 30 g of soil, each treatment contained three flowerpots. Each flowerpot was sprayed with 1.5 ml of the dissolved compound. Soil was let dry for about 1 hour at room conditions, and then each flowerpot was sub-irrigated with 40 ml water and incubated at controlled growth chambers, under conditions provided on table 6. Gemination was assessed and scored after 7 days. Scoring scale: 0—complete germination inhibition, 100—no effect. [table]"}, "Amaranthus palmeri [5]": {"system": "Amaranthus palmeri", "test": "Soil germination (Example 3)", "conditions": "0.1 mg/ml; score 0 = complete germination inhibition, 100 = no effect; after 7 days", "method": "as §5"}, "Echinochloa colonum": {"system": "Echinochloa colonum", "test": "Soil germination (Example 3)", "conditions": "0.1 mg/ml; score 0 = complete germination inhibition, 100 = no effect; after 7 days", "method": "as §5"}, "Setaria adhaerens": {"system": "Setaria adhaerens", "test": "Soil germination (Example 3)", "conditions": "0.1 mg/ml; score 0 = complete germination inhibition, 100 = no effect; after 7 days", "method": "as §5"}, "Triticum vulgare [6]": {"system": "Triticum vulgare", "test": "Soil germination (Example 3)", "conditions": "0.1 mg/ml; score 0 = complete germination inhibition, 100 = no effect; after 7 days", "method": "as §5"}, "Zea mays [7]": {"system": "Zea mays", "test": "Soil germination (Example 3)", "conditions": "0.1 mg/ml; score 0 = complete germination inhibition, 100 = no effect; after 7 days", "method": "as §5"}, "Amaranthus palmeri [8]": {"system": "Amaranthus palmeri", "test": "Residual activity greenhouse assay", "conditions": "seeds sowed three weeks after pre-emergence application", "from_the_text": "Residual activity of Compound 1 and Compound 2 was examined in greenhouse assay. Three weeks after pre-emergence application, new Amaranthus palmeri seeds were sowed on the same pots and germination was followed."}, "Triticum vulgare [9]": {"system": "Triticum vulgare", "test": "Foliar experiment (Example 2)", "conditions": "0.1 mg/ml; score 0 = complete phytotoxic effect, 100 = no effect", "method": "as §1, with “Compounds were” for “For post-emergence application, compounds were”, “get 0.1 or 0.5” for “get 0.05-2”, “(Roundup).” for “(Roundup). For post-emergence application,”, “of different plants,” for “of Amaranthus palmeri,”, “were 6-16” for “were 10”, “effect. [table]” for “effect.”"}, "Zea mays [10]": {"system": "Zea mays", "test": "Foliar experiment (Example 2)", "conditions": "0.1 mg/ml; score 0 = complete phytotoxic effect, 100 = no effect", "method": "as §1, with “Compounds were” for “For post-emergence application, compounds were”, “get 0.1 or 0.5” for “get 0.05-2”, “(Roundup).” for “(Roundup). For post-emergence application,”, “of different plants,” for “of Amaranthus palmeri,”, “were 6-16” for “were 10”, “effect. [table]” for “effect.”"}, "Lolium rigidum [11]": {"system": "Lolium rigidum", "test": "Soil germination (Example 3)", "conditions": "0.1 mg/ml; score 0 = complete germination inhibition, 100 = no effect; after 7 days", "method": "as §5"}, "[12]": {"conditions": "2 mg/ml, 4-10 days after application"}}}
{"smiles": "CC(Cl)/C=C/C(=O)N(CCC(C)C)Cc1ccc(Cl)s1", "note": "(centres unmarked) [Compound 14]", "values": [{"measurement": "Pre-emergence Amaranthus palmeri herbicidal activity", "setting": "Amaranthus palmeri [1]; 0.1 mg/ml", "result": 20}, {"measurement": "Pre-emergence Amaranthus palmeri herbicidal activity", "setting": "Amaranthus palmeri [1]; 0.25 mg/ml", "result": 5}, {"measurement": "Post-emergence Amaranthus palmeri herbicidal activity", "setting": "Amaranthus palmeri [2]; 0.25 mg/ml", "result": 20}, {"measurement": "Post-emergence Amaranthus palmeri herbicidal activity", "setting": "Amaranthus palmeri [2]; 0.5 mg/ml", "result": 20}, {"measurement": "Herbicidal effect against Setaria viridis, result in words", "setting": "Setaria viridis", "result": "moderate herbicidal effect"}]}
{"smiles": "CC(Cl)/C=C/C(=O)N(CCC(C)C)CCC(C)C", "note": "(centres unmarked) [Compound 16]", "values": [{"measurement": "Pre-emergence Amaranthus palmeri herbicidal activity", "setting": "Amaranthus palmeri [1]; 0.1 mg/ml", "result": 10}, {"measurement": "Pre-emergence Amaranthus palmeri herbicidal activity", "setting": "Amaranthus palmeri [1]; 0.25 mg/ml", "result": 0}, {"measurement": "Post-emergence Amaranthus palmeri herbicidal activity", "setting": "Amaranthus palmeri [2]; 0.25 mg/ml", "result": 50}, {"measurement": "Post-emergence Amaranthus palmeri herbicidal activity", "setting": "Amaranthus palmeri [2]; 0.5 mg/ml", "result": 10}, {"measurement": "Inhibition of Setaria viridis", "setting": "Setaria viridis; applying to the area under cultivation", "result": "more than 30%"}, {"measurement": "Herbicidal effect against Setaria viridis, result in words", "setting": "Setaria viridis", "result": "very good herbicidal effect"}]}
{"smiles": "CCC#CCN(CC(C)C)C(=O)/C=C/C(C)Cl", "note": "(centres unmarked) [Compound 8]", "values": [{"measurement": "Pre-emergence Amaranthus palmeri herbicidal activity", "setting": "Amaranthus palmeri [1]; 0.1 mg/ml", "result": 100}, {"measurement": "Pre-emergence Amaranthus palmeri herbicidal activity", "setting": "Amaranthus palmeri [1]; 0.25 mg/ml", "result": 40}, {"measurement": "Pre-emergence Amaranthus palmeri herbicidal activity", "setting": "Amaranthus palmeri [1]; 2 mg/ml, after 4-7 days", "result": 0}, {"measurement": "Post-emergence Amaranthus palmeri herbicidal activity", "setting": "Amaranthus palmeri [2]; [12]", "result": 30}]}
{"smiles": "CC(Cl)/C=C/C(=O)N(CC(C)C)CC(F)(F)F", "note": "(centres unmarked) [Compound 11]", "values": [{"measurement": "Pre-emergence Amaranthus palmeri herbicidal activity", "setting": "Amaranthus palmeri [1]; 0.1 mg/ml", "result": 15}, {"measurement": "Pre-emergence Amaranthus palmeri herbicidal activity", "setting": "Amaranthus palmeri [1]; 0.25 mg/ml", "result": 5}, {"measurement": "Pre-emergence Amaranthus palmeri herbicidal activity", "setting": "Amaranthus palmeri [1]; 2 mg/ml, after 4-7 days", "result": 0}, {"measurement": "Post-emergence Amaranthus palmeri herbicidal activity", "setting": "Amaranthus palmeri [2]; [12]", "result": 60}]}
{"smiles": "CCOCC#CCN(CC(C)C)C(=O)/C=C/C(C)Cl", "note": "(centres unmarked) [Compound 9]", "values": [{"measurement": "Pre-emergence Amaranthus palmeri herbicidal activity", "setting": "Amaranthus palmeri [1]; 0.1 mg/ml", "result": 60}, {"measurement": "Pre-emergence Amaranthus palmeri herbicidal activity", "setting": "Amaranthus palmeri [1]; 0.25 mg/ml", "result": 50}, {"measurement": "Pre-emergence Amaranthus palmeri herbicidal activity", "setting": "Amaranthus palmeri [1]; 2 mg/ml, after 4-7 days", "result": 0}, {"measurement": "Post-emergence Amaranthus palmeri herbicidal activity", "setting": "Amaranthus palmeri [2]; [12]", "result": 80}]}
{"smiles": "CC(F)/C=C/C(=O)N(Cc1ccc(Cl)nc1)CC(C)C", "note": "(centres unmarked) [Compound 3]", "values": [{"measurement": "Amaranthus palmeri soil germination", "setting": "Amaranthus palmeri [3]; 0.1 mg/ml", "result": 30}]}
{"smiles": "CC(Cl)/C=C/C(=O)N(CC(C)C)CC(C)C", "note": "(centres unmarked) [Compound 1]", "values": [{"measurement": "Amaranthus palmeri soil germination", "setting": "Amaranthus palmeri [3]; 0.01 mg/ml", "result": 80}, {"measurement": "Amaranthus palmeri soil germination", "setting": "Amaranthus palmeri [3]; 0.025 mg/ml", "result": 30}, {"measurement": "Amaranthus palmeri soil germination", "setting": "Amaranthus palmeri [3]; 0.05 mg/ml", "result": 0}, {"measurement": "Amaranthus palmeri soil germination", "setting": "Amaranthus palmeri [3]; 0.1 mg/ml", "result": 0}, {"measurement": "Amaranthus palmeri soil germination", "setting": "Amaranthus palmeri [3]; 0.25 mg/ml", "result": 0}, {"measurement": "soil germination of Amaranthus palmeri, result in words", "setting": "Amaranthus palmeri [3]; concentration not given", "result": "active"}, {"measurement": "Lolium rigidum soil germination", "setting": "Lolium rigidum [4]; 0.5 mg/ml, score 0 = complete germination inhibition, 100 = no effect", "result": 60}, {"measurement": "soil germination of Lolium rigidum, result in words", "setting": "Lolium rigidum [4]; concentration not given", "result": "active"}, {"measurement": "Herbicidal activity, soil germination, Abutilon theophrasti", "setting": "Abutilon theophrasti", "result": 100}, {"measurement": "Herbicidal activity, soil germination, Amaranthus palmeri", "setting": "Amaranthus palmeri [5]", "result": 0}, {"measurement": "Herbicidal activity, soil germination, Echinochloa colonum", "setting": "Echinochloa colonum", "result": 100}, {"measurement": "Herbicidal activity, soil germination, Setaria adhaerens", "setting": "Setaria adhaerens", "result": 60}, {"measurement": "Herbicidal activity, soil germination, Triticum vulgare", "setting": "Triticum vulgare [6]", "result": 100}, {"measurement": "Herbicidal activity, soil germination, Zea mays", "setting": "Zea mays [7]", "result": 100}, {"measurement": "Residual activity: germination of newly sowed Amaranthus palmeri seeds", "setting": "Amaranthus palmeri [8]", "result": "germination was observed"}]}
{"smiles": "CC(Cl)/C=C/C(=O)N(Cc1ccc(Cl)nc1)CC(C)C", "note": "(centres unmarked) [Compound 2]", "values": [{"measurement": "Amaranthus palmeri soil germination", "setting": "Amaranthus palmeri [3]; 0.01 mg/ml", "result": 60}, {"measurement": "Amaranthus palmeri soil germination", "setting": "Amaranthus palmeri [3]; 0.025 mg/ml", "result": 50}, {"measurement": "Amaranthus palmeri soil germination", "setting": "Amaranthus palmeri [3]; 0.05 mg/ml", "result": 0}, {"measurement": "Amaranthus palmeri soil germination", "setting": "Amaranthus palmeri [3]; 0.1 mg/ml", "result": 0}, {"measurement": "Herbicidal activity, foliar, Triticum vulgare", "setting": "Triticum vulgare [9]", "result": 90}, {"measurement": "Herbicidal activity, foliar, Zea mays", "setting": "Zea mays [10]", "result": 90}, {"measurement": "Herbicidal activity, soil germination, Abutilon theophrasti", "setting": "Abutilon theophrasti", "result": 100}, {"measurement": "Herbicidal activity, soil germination, Amaranthus palmeri", "setting": "Amaranthus palmeri [5]", "result": 0}, {"measurement": "Herbicidal activity, soil germination, Echinochloa colonum", "setting": "Echinochloa colonum", "result": 100}, {"measurement": "Herbicidal activity, soil germination, Lolium rigidum", "setting": "Lolium rigidum [11]", "result": 90}, {"measurement": "Herbicidal activity, soil germination, Setaria adhaerens", "setting": "Setaria adhaerens", "result": 80}, {"measurement": "Herbicidal activity, soil germination, Triticum vulgare", "setting": "Triticum vulgare [6]", "result": 100}, {"measurement": "Herbicidal activity, soil germination, Zea mays", "setting": "Zea mays [7]", "result": 100}, {"measurement": "Residual activity: germination of newly sowed Amaranthus palmeri seeds", "setting": "Amaranthus palmeri [8]", "result": "no germination was observed"}]}
